Experimental findings from US6417164B1, “Treatment of type II diabetes mellitus with amylin agonists” (Amylin Pharmaceuticals, Inc., priority 1995, dated 2002) are described below.

Ends that are not written are not given here.

A short description of series [1]: Solubility and stability characteristics compared to human amylin. The format is physicochemical. An excerpt:
(§1) These preferred compounds include ^25Pro^26Val^28,29Pro-h-amylin, ^25,28,29Pro-h-amylin (also referred to herein as “AC-0137”), and ^18Arg^25,28Pro-h-amylin.

Series [2] has as its target T1, membrane-bound amylin receptors (Rattus norvegicus, UniProt P32214+Q9JJ74).
T1 construct: A preferred source of the membrane preparations used in the assay is the basal forebrain which comprises membranes from the nucleus accumbens; from tissue; host or cells: basal forebrain membranes (nucleus accumbens and surrounding regions)
T1 sequence (P32214 25-516): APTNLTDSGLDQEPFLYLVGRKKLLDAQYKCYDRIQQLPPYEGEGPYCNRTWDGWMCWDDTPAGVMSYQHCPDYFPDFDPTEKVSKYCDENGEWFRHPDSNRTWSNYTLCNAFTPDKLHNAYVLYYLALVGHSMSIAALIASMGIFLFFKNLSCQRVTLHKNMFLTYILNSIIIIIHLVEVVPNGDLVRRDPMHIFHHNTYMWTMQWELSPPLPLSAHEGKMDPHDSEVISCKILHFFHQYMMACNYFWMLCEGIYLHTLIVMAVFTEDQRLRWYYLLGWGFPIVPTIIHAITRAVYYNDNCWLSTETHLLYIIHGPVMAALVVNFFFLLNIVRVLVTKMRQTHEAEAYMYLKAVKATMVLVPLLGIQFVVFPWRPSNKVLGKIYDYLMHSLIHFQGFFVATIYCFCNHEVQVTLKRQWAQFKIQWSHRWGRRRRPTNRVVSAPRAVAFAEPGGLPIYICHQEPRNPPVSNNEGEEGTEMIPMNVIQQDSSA
T1 sequence (Q9JJ74 27-148): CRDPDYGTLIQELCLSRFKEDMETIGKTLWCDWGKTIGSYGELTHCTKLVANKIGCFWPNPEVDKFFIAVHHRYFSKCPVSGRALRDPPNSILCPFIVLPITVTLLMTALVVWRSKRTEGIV
The series can be described thus: Receptor binding assay (competition with 125I Bolton Hunter rat amylin). An excerpt:
The receptor binding assay is described in U.S. Pat. No. 5,264,372, issued Nov. 23, 1993, the disclosure of which is incorporated herein by reference. The receptor binding assay is a competition assay which measures the ability of compounds to bind specifically to membrane-bound amylin receptors. A preferred source of the membrane preparations used in the assay is the basal forebrain which comprises membranes from the nucleus accumbens and surrounding regions. Compounds being assayed compete for binding to these receptor preparations with ^125I Bolton Hunter rat amylin. Competition curves, wherein the amount bound (B) is plotted as a function of the log of the concentration of ligand are analyzed by computer, using analyses by nonlinear regression to a 4-parameter logistic equation (Inplot program; GraphPAD Software, San Diego, Calif.) or the ALLFIT program of DeLean et. al. (ALLFIT, Version 2.7 (NIH, Bethesda, Md. 20892)). Munson, P. and Rodbard, D., Anal. Biochem. 107:220-239 (1980).

The test system of series [3] is insulin-stimulated glycogen synthesis in soleus muscle. Put plainly: Soleus muscle assay. More on the design: species or system rat. The protocol:
Assays of biological activity of amylin agonists, including amylin agonist analogue preparations, in the soleus muscle are performed using previously described methods (Leighton, B. and Cooper, G. J. S., Nature, 335:632-635 (1988); Cooper, G. J. S., et al. Proc. Natl. Acad. Sci. USA 85:7763-7766 (1988)). In summary, amylin agonist activity is assessed by measuring the inhibition of insulin-stimulated glycogen synthesis in soleus muscle. Amylin antagonist activity is assessed by measuring the resumption of insulin-stimulated glycogen synthesis in the presence of 100 nM rat amylin and an amylin antagonist. Concentrations of peptide dissolved in carrier-free buffers are determined by quantitative amino acid analysis, as described therein. The ability of compounds to act as agonists in this assay is determined by measuring EC50 values. Standard errors are determined by fitting of sigmoidal dose response curves using a four parameter logistic equation (De Lean, A., Munson, P. J., Guardabasso, V. and Rodbard, D. (1988) ALLFIT, Version 2.7, National Institute of Child Health and Human Development, N.I.H. Bethesda, Md., 1 diskette). A number of amylin agonists have been characterized using these biological assays.

Series [4] concerns treated test animals. The series can be described thus: Amylin activity in vivo in treated test animals.
Description: as §1

Regarding `CC[C@H](C)[C@H](NC(=O)[C@@H]1CCCN1C(=O)CNC(=O)[C@H](Cc1ccccc1)NC(=O)[C@H](CC(N)=O)NC(=O)[C@H](CC(N)=O)NC(=O)[C@H](CO)NC(=O)[C@H](CO)NC(=O)[C@H](Cc1c[nH]cn1)NC(=O)[C@@H](NC(=O)[C@H](CC(C)C)NC(=O)[C@H](Cc1ccccc1)NC(=O)[C@H](CC(N)=O)NC(=O)[C@H](C)NC(=O)[C@H](CC(C)C)NC(=O)[C@H](CCCNC(=N)N)NC(=O)[C@H](CCC(N)=O)NC(=O)[C@@H](NC(=O)[C@H](C)NC(=O)[C@@H]1CSSC[C@H](NC(=O)[C@@H](N)CCCCN)C(=O)N[C@@H](CC(N)=O)C(=O)N[C@@H]([C@@H](C)O)C(=O)N[C@@H](C)C(=O)N[C@@H]([C@@H](C)O)C(=O)N1)[C@@H](C)O)C(C)C)C(=O)N[C@@H](CC(C)C)C(=O)N1CCC[C@H]1C(=O)N1CCC[C@H]1C(=O)N[C@H](C(=O)N[C@@H](CC(N)=O)C(=O)N[C@H](C(=O)NCC(=O)N[C@@H](CO)C(=O)N[C@@H](CC(N)=O)C(=O)N[C@H](C(=O)N[C@@H](Cc1ccc(O)cc1)C(N)=O)[C@@H](C)O)C(C)C)[C@@H](C)O` [AC137, ^25,28,29Pro-h-amylin], in series [1], the stability characteristics result was “more desirable”.
Regarding ^18Arg^25,28,29Pro-h-amylin, in series [2], the “competition with amylin in the receptor binding assay” value (“competition with amylin” below) is listed as “found to compete with amylin”. Further, in series [3], the “amylin agonist action in the soleus muscle assay” value (“amylin agonist action” for short) is “shown to act as amylin agonists” and the “antagonist activity as measured by the soleus muscle assay” value (“antagonist activity as measured” below) is reported as “negligible antagonist activity”.
Take ^25Pro^26Val^25,28Pro-h-amylin: the “competition with amylin” value in series [2] is “found to compete with amylin”. Further, in series [3], the “amylin agonist action” value was “shown to act as amylin agonists” and the “antagonist activity as measured” value is listed as “negligible antagonist activity”.
Take “^28Pro-h-amylin (KCNTATCATQRLANFLVHSSNNFGAILPSTNVGSNTY; ends and bridges not checked; cysteine pairing not given here; UniProt P10997 34-70, looked up, variant S28P) [amylin agonist analogue of human amylin]”: in series [4], the “amylin activity in vivo” value is on record as “marked hyperlactemia followed by hyperglycemia”.
Still for that read-out and setting: the entry for des-^1Lys-h-amylin [des-^1Lys-hamylin] is “marked hyperlactemia followed by hyperglycemia”.
Take des-^1Lys^18Arg^25,28,29Pro-h-amylin: in series [2], the “competition with amylin” value is given as “found to compete with amylin”. Further, in series [3], the “amylin agonist action” value is on record as “shown to act as amylin agonists” and the “antagonist activity as measured” value is recorded as “negligible antagonist activity”.
With des-^1Lys^18Arg^25,28Pro-h-amylin, the “competition with amylin” value in series [2] is “found to compete with amylin”. Also, in series [3], the “amylin agonist action” value is reported as “shown to act as amylin agonists” and the “antagonist activity as measured” value is given as “negligible antagonist activity”. Further, the “amylin activity in vivo” value in series [4] is listed as “marked hyperlactemia followed by hyperglycemia”.
Consider des-^1Lys^25,28,29Pro-h-amylin, for which the “competition with amylin” value in series [2] is given as “found to compete with amylin”. Moreover, in series [3], the “amylin agonist action” value is “shown to act as amylin agonists” and the “antagonist activity as measured” value is listed as “negligible antagonist activity”.
